Where two headings read alike, the source gives them in different places.
Assays:
[1] = DPPH radical scavenging assay; type: biochemical; conditions: Table 2, mean of three replicates, read-out: IC50 for inhibition of DPPH radical formation
From the text: (§1) The DPPH radical activity test was used to measure the hydrogen atom or electron donor capacity of the samples to the stable radical DPPH formed in liquid solution. Thus, it measures the capacity of the samples to scavenge free radicals in solution [17]. Proton radical scavenging is an important attribute of antioxidants. […] ABTS, a protonated radical, has characteristic absorbance at 734 nm which decreases with the scavenging of the proton radicals. […]
DPPH is a stable free radical that reacts with compounds that can donate a hydrogen atom. This method is based on the scavenging of DPPH through the addition of a radical species or an antioxidant that decolorizes the DPPH solution. The antioxidant activity is then measured by the extent of decrease in absorption at 515 nm. In brief, a 0.2 mM solution of DPPH in methanol was prepared, and 100 μL of this solution was added to 100 μL of the sample solution in methanol at varying concentrations. The solutions in the 96 well micro plates were shaken well and incubated in the dark for 30 minutes at room temperature. The absorbance was measured at 515 nm. A large decrease in the absorbance of the reaction mixture indicates substantial free radical scavenging activity of the compound. DPPH radical scavenging activity (%) = [(Abscontrol − Abscompound)]/(Abscontrol)] × 100 where Abscontrol is the absorbance of DPPH radical + methanol; Abscompound is the absorbance of DPPH radical + compound/standard.

[2] = ABTS radical scavenging assay; type: biochemical; conditions: Table 2, mean of three replicates, read-out: IC50 for inhibition of ABTS radical formation
From the text: as §1
The ABTS radical scavenging method was developed by Rice-Evans and Miller in 1994 and was then modified by Rice-Evants et al. in 1999. The modification is based on the activation of metmyo-globin with hydrogen peroxide in the presence of ABTS^•+ to produce a radical cation. This improved method generates a blue/green ABTS^•+ chromophore via the reaction of ABTS and potassium persulfate and is now widely used. The antioxidant activity is then measured by the decrease in absorption at 734 nm. In brief, ABTS radical cation (ABTS^•+) was produced by reacting ABTS stocking solution with […] potassium persulfate and kept in the dark at room temperature for 12–16 h before use. The samples containing the ABTS^•+ solution were diluted with methanol to obtain an absorbance of 0.700 (±0.02) at 734 nm and equilibrated at 30 °C. The ABTS^•+ solution was freshly prepared for each assay. Different concentrations of compounds (16 μL) were allowed to react with 184 μL of the ABTS^•+ solution and the absorbance was taken at 734 nm after 7 min using spectrophotometer. The ABTS^•+ scavenging capacity of the compound percentage inhibition was calculated using formula: ABTS radical scavenging activity (%) = [(Abscontrol − Abscompound)]/(Abscontrol)] × 100, where Abscontrol is the absorbance of ABTS radical + methanol; Abscompound is the absorbance of ABTS radical + compound/standard.

[3] = Lipid peroxidation assay (TBARS), egg yolk homogenates; type: biochemical; conditions: Table 2; egg yolk homogenate, FeSO4; mean of three replicates; read-out: IC50 for inhibition of peroxidation of lipids, estimated as thiobarbituric acid reactive substances
Method: Lipid peroxidation involves the formation and propagation of lipid radicals with numerous deleterious effects, including destruction of membrane lipids, metabolic disorders and inflammation, and production of malondialdehyde (MDA) is a hallmark of this process. Inhibition of lipid peroxidation was assessed by amount of MDA produced. Lipids in egg yolk undergo rapid nonenzymatic peroxidation in the presence of ferrous sulphate. […] Phenolics present in plant sources have received considerable attention over the past decade because of their potential to prevent lipid peroxidation and diseases associated with it.
A modified thiobarbituric acid-reactive species (TBARS) assay was used to measure the lipid peroxide formed, using egg yolk homogenates as lipid-rich media. Adapted TBARS method was employed to measure the antioxidant capacity. Briefly, egg homogenate (100 μL of 1:25, v/v in phosphate-buffered saline (PBS) PH 7.4) and 10 μL of different concentrations of sample were added to a test tube as well as added 25 mmol/L freshly prepared FeSO4 made up to 300 μL with PBS. The homogenate was incubated at 37 °C for 15 min and then the reaction was stopped by adding 50 μL 15% w/v trichloroacetic acid (TCA) and centrifugation (3,500 rpm) for 15 min. An aliquot of 200 μL from supernatant was mixed with 100 μL thiobarbituric acid (TBA) and heated at 95 °C for 30 min.

[4] = biological target: T1, Acetylcholinesterase (AChE) type VI-S from electric eel (Electrophorus electricus, UniProt O42275); test: biochemical
T1 construct: purchased Sigma (St. Louis, MO, USA)
From the text: Acetylcholinesterase (AChE) type VI-S from electric eel, 5-5′-dithiobis-[2-nitrobenzoicacid] (DTNB), 1-1-diphenyl-2-picrylhydrazyl (DPPH), 2,2'-azinobis-(3-ethylbenzothiazoline-6-sulfonic acid) (ABTS), acetylthiocholine iodide (AChI), dimethyl sulfoxide (DMSO), ferrous sulfate (FeSO4·7H2O), thiobarbituric acid (TBA), trichloroacetic acid (TCA), potassium ferricyanide were obtained from Sigma (St. Louis, MO, USA). L-3-ketothreohexuronic acid lactone (vitamin C) and huperzine A were purchased from the National Institutes for Food and Drug Control, Beijing, China. All the other reagents were of analytical grade.
Inhibition of acetyl cholinesterase activity of samples was measured by the micro-plate assay adapted. AChE inhibitory activity was measured by slightly modifying the spectrophotometric method from the literature which was initially developed by Ellman. Briefly, in this method, 100 μL of […] sodium phosphate buffer (pH = 8.0), 20 μL of DTNB, 20 μL of test solution and 2 μL of AChE solution were added using a multichannel automatic pipette into a 96-well micro plate and incubated for 15 min at 25 °C.

PC12 cells = test: tBHP exposure in PC12 cells, cell viability (MTT); type: cell-based, Rat; conditions: for Protection against tBHP-induced cell death in PC12 cells (cell viability, MTT): pre-treated 100 μM for 24 h, then tBHP 200 μM for 3 h, p < 0.05
Method: tBHP caused a reduction in cell viability with an IC50 value for PC12 cells death at 200 μM. PC12 cells were an established model of nerve growth factor (NGF) - induced neurite formation. […] In the control sample, the value of cell viability was set to be 100%.
Rat pheochromocytoma cells (PC12) cells were kindly donated by Professor Dong T. X. (The Hong Kong University of Science and Technology, Hong Kong, China). PC12 cells were maintained in 75 cm culture flasks containing 20 mL of RPMI-1640 media supplemented with 1% FBS, 1% L-glutamine, 1% non-essential amino acids and 1% penicillin/streptomycin. Cells were maintained in an incubator at 37 °C with 5% CO2. Experiments and cell maintenances were performed in a laminar flow hood under sterile conditions. Cells were passaged every 4–5 days and detached from flasks using 1× trypsin EDTA. Cell counts were performed using trypan blue to stain non viable cells, which were excluded from the count. Ninety-six well plates were used for cell viability experiments. The cells were then allowed to equilibrate for 24 h before the experiment.
H2O2 is a well established pro-oxidant in PC12 cells over the concentration range used. tBHP shares some of the same properties of H2O2 but generates a more shallow neurotoxicity response over a wider concentration range than H2O2 in PC12 cells and elicits greater lipid peroxidation. […] For anti-oxidation effect, the cultures were treated with tBHP (200 μM) for 3 h. Cultures were subjected to cell viability test using the colorimetric MTT assay. Purple crystal inside the cells was dissolved by DMSO and measured by absorbance at 570 nm.

[5] = Table 2, mean of three replicates, read-out: IC50 for inhibition of AChE

T1 sequence (O42275 24-633): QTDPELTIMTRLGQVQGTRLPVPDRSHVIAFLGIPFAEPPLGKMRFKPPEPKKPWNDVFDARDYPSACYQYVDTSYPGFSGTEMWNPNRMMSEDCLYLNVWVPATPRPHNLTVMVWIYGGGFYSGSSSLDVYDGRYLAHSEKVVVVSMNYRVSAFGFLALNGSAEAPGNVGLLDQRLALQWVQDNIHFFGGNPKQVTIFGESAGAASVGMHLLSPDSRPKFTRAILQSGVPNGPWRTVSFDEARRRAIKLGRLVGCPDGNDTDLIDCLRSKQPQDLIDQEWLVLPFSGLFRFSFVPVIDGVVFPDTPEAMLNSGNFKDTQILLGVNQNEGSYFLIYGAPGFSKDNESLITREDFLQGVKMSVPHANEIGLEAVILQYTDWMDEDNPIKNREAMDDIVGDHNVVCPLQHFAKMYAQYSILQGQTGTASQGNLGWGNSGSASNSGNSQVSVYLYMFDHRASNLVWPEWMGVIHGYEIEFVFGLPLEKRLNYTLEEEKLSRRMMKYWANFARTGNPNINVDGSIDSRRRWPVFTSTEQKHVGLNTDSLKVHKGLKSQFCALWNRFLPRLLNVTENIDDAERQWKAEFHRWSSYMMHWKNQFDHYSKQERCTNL

| SMILES | IC50 [1] [µM] | IC50 [2] [µM] | IC50 [3] [µM] | IC50 [4] [µM] | IC50 [4, 5] [µM] | Protection against tBHP-induced cell death in PC12 cells (cell viability, MTT) (PC12 cells) | IC50 ([1]; listed as quercetin) [µM] | IC50 ([2]; listed as quercetin) [µM] | IC50 (PC12 cells; reduction in cell viability by tBHP, read-out: IC50 value for PC12 cells death) [µM] |
| --- | --- | --- | --- | --- | --- | --- | --- | --- | --- |
| O=c1c(O[C@@H]2O[C@H](CO)[C@H](O)[C@H](O)[C@H]2O)c(-c2ccc(O)c(O)c2)oc2cc(O)cc(O)c12 [Hyperoside] | 11.2 | 113 | 7.47 | 94.6 |  |  |  |  |  |
| O=c1c(O[C@@H]2O[C@H](CO)[C@@H](O)[C@H](O)[C@H]2O)c(-c2ccc(O)c(O)c2)oc2cc(O)cc(O)c12 [Isoquercetin] | 3.65 | 26.9 | 8.81 | 57 |  |  |  |  |  |
| COc1cc(-c2oc3cc(O[C@@H]4O[C@H](CO)[C@@H](O)[C@H](O)[C@H]4O)cc(O)c3c(=O)c2O)ccc1O [Isorhamnetin-7-O-β-D-glucopyranoside] | 1.73 | 21.8 | 7.2 |  | 55.7 |  |  |  |  |
| O=c1c(O)c(-c2ccc(O)cc2)oc2cc(O)cc(O)c12 [Kaempferol] | 5.52 | 41.4 |  |  |  | could exert the anti-oxidation effect in protecting the tBHP-induced cell death |  |  |  |
| O=c1c(O[C@@H]2O[C@H](CO)[C@@H](O)[C@H](O)[C@H]2O)c(-c2ccc(O)c(O)c2)oc2cc(O[C@@H]3O[C@H](CO)[C@@H](O)[C@H](O)[C@H]3O)cc(O)c12 [Quercetin-3,7-di-O-β-D-glucopyranosid] | 5.48 | 50.8 | 33.4 |  | 67.1 |  |  |  |  |
| O=c1c(O)c(-c2ccc(O)c(O[C@@H]3O[C@H](CO)[C@@H](O)[C@H](O)[C@H]3O)c2)oc2cc(O)cc(O)c12 [Quercetin-3′-O-β-D-glucoside] | 3.75 | 34.7 | 8.9 |  | 88.6 | could exert the anti-oxidation effect in protecting the tBHP-induced cell death |  |  |  |
| O=c1c(O)c(-c2ccc(O)c(O)c2)oc2cc(O)cc(O)c12 [Quercetin] | 0.84 | 19.6 | 13.1 |  |  |  | 19.6 | 0.84 |  |
| O=c1c(O)c(-c2ccc(O)c(O)c2)oc2cc(OC3OC(CO)C(O)C(O)C3O)cc(O)c12 (stereo not drawn) [Quercimeritin] | 3.69 | 24.9 | 6.85 | 52.3 |  | could exert the anti-oxidation effect in protecting the tBHP-induced cell death |  |  |  |
| O=C1O[C@H]([C@@H](O)CO)C(O)=C1O [Vit C, L-3-ketothreohexuronic acid lactone, reference compound] |  |  |  |  |  | protect the cells against oxidation significantly |  |  |  |
| CC(C)(C)OO [tBHP, tertiary butyl hydroperoxide, reference compound] |  |  |  |  |  |  |  |  | 200 |

Reference: paper PMC6269909, “Investigating the Antioxidant and Acetylcholinesterase Inhibition Activities of Gossypium herbaceam” (Molecules, 2013)
